Data on eight compounds can be found in patent US11168089B2, “Fused pyrimidine derivatives as A2A / A2B inhibitors” (Incyte Corporation, priority 2018, dated 2021).

The target in one assay is Adenosine A2A receptor (Homo sapiens (Human), UniProt P29274). The assay is described as follows: A2A Tag-Lite HTRF assay. Type of assay: binding. Conditions: Tag-Lite Adenosine A2A labeled cells, displacement of A2A Receptor Red antagonist fluorescent ligand 12.5 nM; read-out: A2A_Ki. The text has this:
Example C. A2A Tag-Lite® HTRF Assay
The final concentration of DMSO was 1%.

For assay [1], the target named is human adenosine A2B receptor (Homo sapiens (Human), UniProt P29275). Description: Adenosine A2B Receptor Cyclic AMP GS Assay. It is filed as cell-based. Conditions: HEK-293 cells expressing human A2B receptor, agonist NECA 12 nM, cAMP accumulation; read-out: A2B_cAMP_EC50. The method, then:
Example B. Adenosine A2B Receptor Cyclic AMP GS Assay
Stably transfected HEK-293 cells expressing the human adenosine A2B receptor (Perkin Elmer) were maintained in MEM culture medium with 10% FBS and 100 μg/mL Geneticin (Life Technologies). 18 to 24 hours prior to assay, geneticin was removed from culture. The cisbio cAMP-GS Dynamic kit utilizing the FRET (Fluorescence Resonance Energy Transfer) technology was used to measure cAMP accumulation in the cells. Compounds of the present disclosure at an appropriate concentration were mixed with 10000 cells/well in white 96 well half area plates (Perkin Elmer) for 30 min at room temperature gently shaking. Agonist, NECA (R&D Technologies) at 12 nM was added to each well for 60 min at room temperature gently shaking. Detection reagents, d2-labeled cAMP (acceptor) and anti-cAMP cryptate (donor) were added to each well for 60 min at RT gently shaking. Plates were read on Pherastar (BMG Labtech), fluorescence ratio 665/620 was calculated and EC50 determination was performed by fitting the curve of percent of control versus the log of the compound concentration using GraphPad Prism.

Sequence of human adenosine A2B receptor (P29275 whole entry): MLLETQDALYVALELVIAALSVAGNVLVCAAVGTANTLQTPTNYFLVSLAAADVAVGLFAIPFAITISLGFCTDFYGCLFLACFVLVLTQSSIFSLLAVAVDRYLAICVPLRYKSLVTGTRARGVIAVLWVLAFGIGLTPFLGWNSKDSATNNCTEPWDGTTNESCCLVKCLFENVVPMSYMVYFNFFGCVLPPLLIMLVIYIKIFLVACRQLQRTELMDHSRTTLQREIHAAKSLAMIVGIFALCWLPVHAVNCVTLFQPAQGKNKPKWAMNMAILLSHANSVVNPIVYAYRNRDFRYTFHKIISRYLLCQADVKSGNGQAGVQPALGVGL
Sequence of Adenosine A2A receptor (P29274 whole entry): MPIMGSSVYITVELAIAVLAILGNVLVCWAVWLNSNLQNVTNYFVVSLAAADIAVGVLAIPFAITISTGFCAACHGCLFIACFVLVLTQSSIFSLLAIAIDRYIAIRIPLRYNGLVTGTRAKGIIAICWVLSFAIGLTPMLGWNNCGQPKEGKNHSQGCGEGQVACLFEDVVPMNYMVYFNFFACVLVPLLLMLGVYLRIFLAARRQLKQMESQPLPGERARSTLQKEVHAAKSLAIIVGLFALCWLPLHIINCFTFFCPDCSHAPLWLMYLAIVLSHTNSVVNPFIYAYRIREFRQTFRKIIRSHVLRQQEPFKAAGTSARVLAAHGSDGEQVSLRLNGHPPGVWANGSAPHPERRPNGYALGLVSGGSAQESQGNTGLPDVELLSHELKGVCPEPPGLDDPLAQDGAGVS

As for `CCN(Cc1cccc(F)c1Cc1nc2cc(-c3cccc(C#N)c3F)nc(N)n2n1)[C@@H]1CCNC1=O` [Example 32, (R)-3-(5-Amino-2-(2-((ethyl(2-oxopyrrolidin-3-yl)amino)methyl)-6-fluorobenzyl)-[1,2,4]triazolo[1,5-c]pyrimidin-7-yl)-2-fluorobenzonitrile], the Ki at Adenosine A2A receptor was less than 10 nM. The EC50 in assay [1] fell in the range of 10 to 100 nM.

Regarding `N#Cc1cccc(-c2cc3nc(Cc4c(F)cccc4CN[C@H]4CCNC4=O)nn3c(N)n2)c1F` [Example 22, (S)-3-(5-Amino-2-(2-fluoro-6-(((2-oxopyrrolidin-3-yl)amino)methyl)benzyl)-[1,2,4]triazolo[1,5-c]pyrimidin-7-yl)-2-fluorobenzonitrile], the Ki on Adenosine A2A receptor is less than 10 nM. Moreover, the EC50 in assay [1] was less than 10 nM.

`N#Cc1cccc(-c2cc3nc(Cc4ccccc4)nn3c(N)n2)c1` [Example 2, 3-(5-Amino-2-benzyl-[1,2,4]triazolo[1,5-c]pyrimidin-7-yl)benzonitrile]: on Adenosine A2A receptor, the Ki is less than 10 nM. In addition, the EC50 in assay [1] was less than 10 nM.

Take `N#Cc1cccc(-c2cc3nc(C(O)c4ccccc4)nn3c(N)n2)c1` (stereo not shown) [Example 1, 3-(5-Amino-2-(hydroxy(phenyl)methyl)-[1,2,4]triazolo[1,5-c]pyrimidin-7-yl)benzonitrile]: at Adenosine A2A receptor, the Ki is less than 10 nM. Besides, the EC50 in assay [1] was less than 10 nM.

For `N#Cc1cccc(-c2cc3nc(Cc4c(F)cccc4CN[C@@H]4CCOC4=O)nn3c(N)n2)c1F` [Example 20, (R)-3-(5-Amino-2-(2-fluoro-6-(((2-oxotetrahydrofuran-3-yl)amino)methyl)benzyl)-[1,2,4]triazolo[1,5-c]pyrimidin-7-yl)-2-fluorobenzonitrile], on Adenosine A2A receptor, the Ki was less than 10 nM. The EC50 in assay [1] was less than 10 nM.

As to `CC(=O)N[C@H]1CCN(Cc2cccc(F)c2Cc2nc3cc(-c4cccc(C#N)c4F)nc(N)n3n2)C1` [Example 25, (S)—N-(1-(2-((5-Amino-7-(3-cyano-2-fluorophenyl)-[1,2,4]triazolo[1,5-c]pyrimidin-2-yl)methyl)-3-fluorobenzyl)pyrrolidin-3-yl)acetamide], the Ki on Adenosine A2A receptor was less than 10 nM. Moreover, the EC50 in assay [1] lay in the range of 10 to 100 nM.

Turning to `CN1CCC2(CN(Cc3cccc(F)c3C(O)c3nc4cc(-c5cccc(C#N)c5F)nc(N)n4n3)C2)C1=O` (stereo not shown) [Example 17, 3-(5-Amino-2-((2-fluoro-6-((6-methyl-5-oxo-2,6-diazaspiro[3.4]octan-2-yl)methyl)phenyl)(hydroxy)methyl)-[1,2,4]triazolo[1,5-c]pyrimidin-7-yl)-2-fluorobenzonitrile], the Ki on Adenosine A2A receptor was less than 10 nM. The EC50 in assay [1] lay within 10 to 100 nM.

In the case of `CN1CCC(NCc2cccc(F)c2C(O)c2nc3cc(-c4cccc(C#N)c4F)nc(N)n3n2)C1=O` (single isomer, unassigned) [Example 16, 3-(5-Amino-2-((2-fluoro-6-(((1-methyl-2-oxopyrrolidin-3-yl)amino)methyl)phenyl)(hydroxy)methyl)-[1,2,4]triazolo[1,5-c]pyrimidin-7-yl)-2-fluorobenzonitrile], the Ki on Adenosine A2A receptor was less than 10 nM. Besides, in assay [1], the EC50 is 10 to 100 nM.
